Test results reported in ChEMBL document CHEMBL4507287, “Data for DCP probe MRL-650” (2021).

Tests used:
[1] = target: Serine/threonine-protein kinase N2 (Homo sapiens) (UniProt Q16513); conditions: Compound concentration 1000.0 nM
[2] = target: Tyrosine-protein kinase JAK1 (Homo sapiens) (UniProt P23458); conditions: Compound concentration 1000.0 nM
[3] = target: Tyrosine-protein kinase Srms (Homo sapiens) (UniProt Q9H3Y6); conditions: Compound concentration 1000.0 nM
[4] = target: Serine/threonine-protein kinase 3 (Homo sapiens) (UniProt Q13188); conditions: Compound concentration 1000.0 nM
[5] = target: Mitogen-activated protein kinase kinase kinase 4 (Homo sapiens) (UniProt Q9Y6R4); conditions: Compound concentration 1000.0 nM
[6] = target: Microtubule-associated serine/threonine-protein kinase 1 (Homo sapiens) (UniProt Q9Y2H9); conditions: Compound concentration 1000.0 nM
[7] = target: Myosin light chain kinase family member 4 (Homo sapiens) (UniProt Q86YV6); conditions: Compound concentration 1000.0 nM
Sequence of Myosin light chain kinase family member 4 (Homo sapiens) (Q86YV6 whole entry): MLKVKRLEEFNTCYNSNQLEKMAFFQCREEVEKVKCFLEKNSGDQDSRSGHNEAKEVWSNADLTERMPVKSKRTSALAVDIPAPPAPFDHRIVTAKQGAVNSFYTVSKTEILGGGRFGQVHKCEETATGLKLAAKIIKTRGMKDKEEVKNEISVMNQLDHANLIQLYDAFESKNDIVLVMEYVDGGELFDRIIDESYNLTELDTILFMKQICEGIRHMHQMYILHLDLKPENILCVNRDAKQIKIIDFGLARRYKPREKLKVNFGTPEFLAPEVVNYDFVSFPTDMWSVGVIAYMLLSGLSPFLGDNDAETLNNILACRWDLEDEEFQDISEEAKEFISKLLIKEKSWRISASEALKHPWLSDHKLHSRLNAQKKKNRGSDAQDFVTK

[8] = target: Cyclin-dependent kinase 2 homolog (Plasmodium falciparum (isolate 3D7)) (UniProt P61075); conditions: Compound concentration 1000.0 nM
[9] = target: Hepatocyte growth factor receptor (Homo sapiens) (UniProt P08581); conditions: Compound concentration 1000.0 nM
Sequence of Hepatocyte growth factor receptor (Homo sapiens) (P08581 whole entry): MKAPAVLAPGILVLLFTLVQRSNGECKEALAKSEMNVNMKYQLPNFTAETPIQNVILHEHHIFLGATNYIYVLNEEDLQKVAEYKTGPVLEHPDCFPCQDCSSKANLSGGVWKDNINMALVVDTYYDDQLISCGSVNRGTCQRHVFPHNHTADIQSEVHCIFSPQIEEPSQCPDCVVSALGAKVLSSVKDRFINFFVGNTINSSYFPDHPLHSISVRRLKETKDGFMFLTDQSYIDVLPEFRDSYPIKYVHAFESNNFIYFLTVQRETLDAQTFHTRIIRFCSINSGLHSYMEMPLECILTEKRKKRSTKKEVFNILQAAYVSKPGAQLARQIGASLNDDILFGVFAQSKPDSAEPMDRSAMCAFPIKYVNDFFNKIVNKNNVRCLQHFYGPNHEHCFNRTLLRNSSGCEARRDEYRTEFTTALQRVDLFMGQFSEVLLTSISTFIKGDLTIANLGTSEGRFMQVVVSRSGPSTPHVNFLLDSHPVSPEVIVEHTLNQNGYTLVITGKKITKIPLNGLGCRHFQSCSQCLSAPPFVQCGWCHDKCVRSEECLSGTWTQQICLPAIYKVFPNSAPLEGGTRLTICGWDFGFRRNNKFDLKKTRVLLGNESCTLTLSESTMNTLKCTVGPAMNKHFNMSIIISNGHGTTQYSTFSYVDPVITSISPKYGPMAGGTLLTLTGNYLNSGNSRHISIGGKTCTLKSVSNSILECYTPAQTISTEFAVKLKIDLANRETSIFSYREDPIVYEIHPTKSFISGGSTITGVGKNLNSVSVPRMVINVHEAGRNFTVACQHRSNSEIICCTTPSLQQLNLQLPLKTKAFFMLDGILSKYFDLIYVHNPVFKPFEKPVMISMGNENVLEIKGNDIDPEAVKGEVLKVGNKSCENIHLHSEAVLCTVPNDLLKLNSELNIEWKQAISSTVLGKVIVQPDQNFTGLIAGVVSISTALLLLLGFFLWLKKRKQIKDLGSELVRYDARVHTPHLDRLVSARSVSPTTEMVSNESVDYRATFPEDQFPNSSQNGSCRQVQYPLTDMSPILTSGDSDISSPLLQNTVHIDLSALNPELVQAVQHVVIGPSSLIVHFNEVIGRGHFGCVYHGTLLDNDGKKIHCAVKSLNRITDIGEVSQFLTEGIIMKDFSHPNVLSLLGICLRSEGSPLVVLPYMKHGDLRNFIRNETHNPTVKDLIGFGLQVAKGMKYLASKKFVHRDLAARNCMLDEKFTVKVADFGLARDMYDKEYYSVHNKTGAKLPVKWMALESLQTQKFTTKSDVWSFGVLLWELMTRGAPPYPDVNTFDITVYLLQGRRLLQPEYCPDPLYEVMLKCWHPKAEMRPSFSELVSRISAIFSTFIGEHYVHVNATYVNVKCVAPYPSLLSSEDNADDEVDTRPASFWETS

[10] = target: Tyrosine-protein kinase Lyn (Homo sapiens) (UniProt P07948); conditions: Compound concentration 1000.0 nM
[11] = target: BDNF/NT-3 growth factors receptor (Homo sapiens) (UniProt Q16620); conditions: Compound concentration 1000.0 nM
[12] = target: Ephrin type-B receptor 2 (Homo sapiens) (UniProt P29323); conditions: Compound concentration 1000.0 nM
Sequence of Ephrin type-B receptor 2 (Homo sapiens) (P29323 whole entry, canonical isoform): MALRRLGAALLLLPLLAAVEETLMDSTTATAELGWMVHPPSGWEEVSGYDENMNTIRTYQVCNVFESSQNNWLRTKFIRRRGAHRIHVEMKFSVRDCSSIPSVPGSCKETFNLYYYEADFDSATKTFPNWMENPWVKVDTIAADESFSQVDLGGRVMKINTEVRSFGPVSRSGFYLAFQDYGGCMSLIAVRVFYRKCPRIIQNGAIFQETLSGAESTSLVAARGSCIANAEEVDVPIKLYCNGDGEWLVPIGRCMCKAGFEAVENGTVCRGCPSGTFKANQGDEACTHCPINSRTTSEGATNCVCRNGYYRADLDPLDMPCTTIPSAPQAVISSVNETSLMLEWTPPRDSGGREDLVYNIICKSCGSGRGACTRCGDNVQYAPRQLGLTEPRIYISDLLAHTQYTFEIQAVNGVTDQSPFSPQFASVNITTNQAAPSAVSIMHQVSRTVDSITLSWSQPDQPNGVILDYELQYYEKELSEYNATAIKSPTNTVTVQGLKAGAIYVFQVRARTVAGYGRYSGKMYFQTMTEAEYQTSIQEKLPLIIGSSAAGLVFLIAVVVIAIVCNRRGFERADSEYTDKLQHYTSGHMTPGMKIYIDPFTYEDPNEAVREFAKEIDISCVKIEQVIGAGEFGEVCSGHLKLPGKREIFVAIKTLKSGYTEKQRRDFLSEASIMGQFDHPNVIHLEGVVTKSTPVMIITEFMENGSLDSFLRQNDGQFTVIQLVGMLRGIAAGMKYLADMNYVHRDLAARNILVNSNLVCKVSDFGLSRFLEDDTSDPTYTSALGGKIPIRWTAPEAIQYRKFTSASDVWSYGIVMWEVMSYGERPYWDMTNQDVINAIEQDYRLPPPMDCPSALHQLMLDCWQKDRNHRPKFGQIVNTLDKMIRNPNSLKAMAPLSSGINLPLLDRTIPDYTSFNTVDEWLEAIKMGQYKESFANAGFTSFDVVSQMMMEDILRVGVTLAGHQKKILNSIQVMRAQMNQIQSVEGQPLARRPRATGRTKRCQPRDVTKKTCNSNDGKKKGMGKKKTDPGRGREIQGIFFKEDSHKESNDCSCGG

[13] = tested on: Phosphatidylinositol 4,5-bisphosphate 3-kinase catalytic subunit alpha isoform (Homo sapiens), P42336 [H1047L]; conditions: Compound concentration 1000.0 nM
[14] = tested on: Mast/stem cell growth factor receptor Kit (Homo sapiens), P10721 [D816H]; conditions: Compound concentration 1000.0 nM
[15] = target: Homeodomain-interacting protein kinase 2 (Homo sapiens) (UniProt Q9H2X6); conditions: Compound concentration 1000.0 nM
[16] = tested on: Phosphatidylinositol 4,5-bisphosphate 3-kinase catalytic subunit alpha isoform (Homo sapiens), P42336 [M1043I]; conditions: Compound concentration 1000.0 nM
[17] = target: Serine/threonine-protein kinase ULK1 (Homo sapiens) (UniProt O75385); conditions: Compound concentration 1000.0 nM
[18] = target: Tyrosine-protein kinase SYK (Homo sapiens) (UniProt P43405); conditions: Compound concentration 1000.0 nM
[19] = target: Activin receptor type-1B (Homo sapiens) (UniProt P36896); conditions: Compound concentration 1000.0 nM
[20] = target: Phosphatidylinositol 4,5-bisphosphate 3-kinase catalytic subunit beta isoform (Homo sapiens) (UniProt P42338); conditions: Compound concentration 1000.0 nM
Sequence of Phosphatidylinositol 4,5-bisphosphate 3-kinase catalytic subunit beta isoform (Homo sapiens) (P42338 whole entry, looked up, canonical isoform): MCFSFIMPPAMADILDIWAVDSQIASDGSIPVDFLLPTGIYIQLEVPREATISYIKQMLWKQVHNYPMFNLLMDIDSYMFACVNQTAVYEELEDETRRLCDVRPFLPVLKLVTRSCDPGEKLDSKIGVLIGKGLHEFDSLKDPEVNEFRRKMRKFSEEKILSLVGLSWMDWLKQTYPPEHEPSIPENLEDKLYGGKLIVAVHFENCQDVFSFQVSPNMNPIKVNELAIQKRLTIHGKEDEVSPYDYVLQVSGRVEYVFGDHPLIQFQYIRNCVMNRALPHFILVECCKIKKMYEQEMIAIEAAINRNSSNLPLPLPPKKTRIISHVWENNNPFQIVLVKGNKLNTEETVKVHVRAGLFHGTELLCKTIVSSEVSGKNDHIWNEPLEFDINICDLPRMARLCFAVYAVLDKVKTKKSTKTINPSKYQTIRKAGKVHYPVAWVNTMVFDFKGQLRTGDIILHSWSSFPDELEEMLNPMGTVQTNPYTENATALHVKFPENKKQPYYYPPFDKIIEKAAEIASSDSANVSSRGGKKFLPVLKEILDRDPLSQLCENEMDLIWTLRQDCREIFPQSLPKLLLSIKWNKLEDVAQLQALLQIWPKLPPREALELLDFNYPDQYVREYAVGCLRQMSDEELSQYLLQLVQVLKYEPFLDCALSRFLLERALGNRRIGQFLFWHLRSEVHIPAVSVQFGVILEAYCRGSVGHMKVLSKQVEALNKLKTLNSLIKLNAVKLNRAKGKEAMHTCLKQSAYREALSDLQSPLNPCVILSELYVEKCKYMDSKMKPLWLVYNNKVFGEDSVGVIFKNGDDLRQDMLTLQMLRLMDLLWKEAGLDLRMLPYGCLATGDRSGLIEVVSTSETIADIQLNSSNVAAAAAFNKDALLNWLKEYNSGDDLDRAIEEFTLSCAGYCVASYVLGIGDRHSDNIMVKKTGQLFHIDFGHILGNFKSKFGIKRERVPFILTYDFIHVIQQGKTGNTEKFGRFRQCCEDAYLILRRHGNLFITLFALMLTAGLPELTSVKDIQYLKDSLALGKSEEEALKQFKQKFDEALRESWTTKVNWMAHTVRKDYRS

[21] = target: Alpha-1B adrenergic receptor (Homo sapiens) (UniProt P35368); conditions: Compound concentration 10.0 uM
[22] = target: Fibroblast growth factor receptor 1 (Homo sapiens) (UniProt P11362); conditions: Compound concentration 1000.0 nM
[23] = target: G protein-coupled receptor kinase 3 (Homo sapiens) (UniProt P35626); conditions: Compound concentration 1000.0 nM
[24] = target: Ribosomal protein S6 kinase alpha-3 (Homo sapiens) (UniProt P51812); conditions: Compound concentration 1000.0 nM
[25] = target: MAP kinase-activated protein kinase 2 (Homo sapiens) (UniProt P49137); conditions: Compound concentration 1000.0 nM
[26] = target: Ephrin type-A receptor 6 (Homo sapiens) (UniProt Q9UF33); conditions: Compound concentration 1000.0 nM
[27] = target: Citron Rho-interacting kinase (Homo sapiens) (UniProt O14578); conditions: Compound concentration 1000.0 nM
[28] = target: Tyrosine-protein kinase ABL1 (Homo sapiens) (UniProt P00519); conditions: Compound concentration 1000.0 nM
[29] = target: Activated CDC42 kinase 1 (Homo sapiens) (UniProt Q07912); conditions: Compound concentration 1000.0 nM
[30] = target: Leucine-rich repeat serine/threonine-protein kinase 2 (Homo sapiens) (UniProt Q5S007); conditions: Compound concentration 1000.0 nM
[31] = target: Cyclin-dependent kinase 2 (Homo sapiens) (UniProt P24941); conditions: Compound concentration 1000.0 nM
[32] = target: STE20-like serine/threonine-protein kinase (Homo sapiens) (UniProt Q9H2G2); conditions: Compound concentration 1000.0 nM
[33] = tested on: Epidermal growth factor receptor (Homo sapiens), P00533 [G719C]; conditions: Compound concentration 1000.0 nM
[34] = target: Inhibitor of nuclear factor kappa-B kinase subunit epsilon (Homo sapiens) (UniProt Q14164); conditions: Compound concentration 1000.0 nM
[35] = target: Serine/threonine-protein kinase 33 (Homo sapiens) (UniProt Q9BYT3); conditions: Compound concentration 1000.0 nM
Sequence of Serine/threonine-protein kinase 33 (Homo sapiens) (Q9BYT3 whole entry, looked up): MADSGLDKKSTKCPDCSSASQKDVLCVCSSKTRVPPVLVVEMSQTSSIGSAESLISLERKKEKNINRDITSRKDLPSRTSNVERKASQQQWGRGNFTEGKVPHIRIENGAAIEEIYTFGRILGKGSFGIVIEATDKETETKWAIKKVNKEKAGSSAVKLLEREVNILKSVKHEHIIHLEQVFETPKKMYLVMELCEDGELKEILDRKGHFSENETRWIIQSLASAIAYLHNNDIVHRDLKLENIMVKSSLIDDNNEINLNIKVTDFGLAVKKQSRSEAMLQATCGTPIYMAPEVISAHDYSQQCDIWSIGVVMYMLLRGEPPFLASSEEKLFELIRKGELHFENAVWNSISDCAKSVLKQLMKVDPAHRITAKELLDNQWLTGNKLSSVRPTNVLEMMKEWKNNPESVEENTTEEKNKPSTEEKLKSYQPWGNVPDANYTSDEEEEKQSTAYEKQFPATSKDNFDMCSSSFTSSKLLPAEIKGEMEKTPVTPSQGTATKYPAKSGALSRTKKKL

[36] = target: 5-hydroxytryptamine receptor 2A (Homo sapiens, UniProt P28223); conditions: Compound concentration 10.0 uM
[37] = target: Serine/threonine-protein kinase 35 (Homo sapiens) (UniProt Q8TDR2); conditions: Compound concentration 1000.0 nM
Sequence of Serine/threonine-protein kinase 35 (Homo sapiens) (Q8TDR2 whole entry): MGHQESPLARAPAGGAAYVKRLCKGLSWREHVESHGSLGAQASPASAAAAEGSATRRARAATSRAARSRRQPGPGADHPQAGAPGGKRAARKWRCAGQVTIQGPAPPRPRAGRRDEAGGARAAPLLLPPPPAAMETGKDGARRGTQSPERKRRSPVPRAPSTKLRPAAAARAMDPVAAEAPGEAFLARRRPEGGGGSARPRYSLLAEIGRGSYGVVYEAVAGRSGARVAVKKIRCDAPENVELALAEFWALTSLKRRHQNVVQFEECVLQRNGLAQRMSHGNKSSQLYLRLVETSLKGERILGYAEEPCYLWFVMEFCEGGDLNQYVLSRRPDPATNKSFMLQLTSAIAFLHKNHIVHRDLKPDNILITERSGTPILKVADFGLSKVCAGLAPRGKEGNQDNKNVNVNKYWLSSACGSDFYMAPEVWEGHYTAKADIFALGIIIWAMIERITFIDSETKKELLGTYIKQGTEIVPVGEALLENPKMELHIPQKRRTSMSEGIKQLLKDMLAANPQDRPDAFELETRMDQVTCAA

[38] = target: Interleukin-1 receptor-associated kinase 4 (Homo sapiens) (UniProt Q9NWZ3); conditions: Compound concentration 1000.0 nM
[39] = target: Protein kinase C theta type (Homo sapiens) (UniProt Q04759); conditions: Compound concentration 1000.0 nM
[40] = target: Glycogen synthase kinase-3 beta (Homo sapiens) (UniProt P49841); conditions: Compound concentration 1000.0 nM
[41] = target: Mitogen-activated protein kinase kinase kinase 6 (Homo sapiens) (UniProt O95382); conditions: Compound concentration 1000.0 nM
[42] = tested on: Mast/stem cell growth factor receptor Kit (Homo sapiens), P10721 [V559D,V654A]; conditions: Compound concentration 1000.0 nM
[43] = target: Muscle, skeletal receptor tyrosine-protein kinase (Homo sapiens) (UniProt O15146); conditions: Compound concentration 1000.0 nM
[44] = tested on: Epidermal growth factor receptor (Homo sapiens), P00533 [L861Q]; conditions: Compound concentration 1000.0 nM
[45] = target: Cyclin-dependent kinase-like 5 (Homo sapiens) (UniProt O76039); conditions: Compound concentration 1000.0 nM

For `CC(=O)Nc1c(C(C)=O)c(=O)n(C)c2nc(-c3ccc(Cl)cc3Cl)c(-c3ccc(Cl)cc3)cc12` [NAPHTHYRIDINONE], the residual activity [1] was 100%, the residual activity [2] was 100% and the residual activity [3] was 78%. For the same molecule, the residual activity [4] was 100%, the residual activity [5] was 89% and the residual activity [6] was 100%. It also gave a residual activity [7] of 100%, a residual activity [8] of 100% and a residual activity [9] of 100%. It also gave a residual activity [10] of 100%, a residual activity [11] of 100% and a residual activity [12] of 100%. The residual activity [13] was 95%, the residual activity [14] was 100% and the residual activity [15] was 100%. The residual activity [16] was 100%, the residual activity [17] was 66% and the residual activity [18] was 96%. For the same molecule, the residual activity [19] was 94%, the residual activity [20] was 100% and the inhibition [21] was 17.1%. It also gave a residual activity [22] of 100%, a residual activity [23] of 99% and a residual activity [24] of 90%. The residual activity [25] was 100%, the residual activity [26] was 100% and the residual activity [27] was 100%. It also gave a residual activity [28] of 81%, a residual activity [29] of 100% and a residual activity [30] of 100%. For the same molecule, the residual activity [31] was 100%, the residual activity [32] was 100% and the residual activity [33] was 100%. It also gave a residual activity [34] of 80%, a residual activity [35] of 100% and an inhibition [36] of 21.8%. The residual activity [37] was 100%, the residual activity [38] was 100% and the residual activity [39] was 100%. It also gave a residual activity [40] of 100%, a residual activity [41] of 94% and a residual activity [42] of 100%. It also gave a residual activity [43] of 100%, a residual activity [44] of 100% and a residual activity [45] of 100%.
Work on `CC(=O)c1c(NS(C)(=O)=O)c2cc(-c3ccc(Cl)cc3)c(-c3ccc(Cl)cc3Cl)nc2n(C)c1=O` [MRL-CB1-NC] yielded a residual activity [1] of 76%, a residual activity [2] of 93% and a residual activity [3] of 71%. It also gave a residual activity [4] of 100%, a residual activity [5] of 95% and a residual activity [6] of 100%. For the same molecule, the residual activity [7] was 100%, the residual activity [8] was 100% and the residual activity [9] was 100%. The residual activity [10] was 100%, the residual activity [11] was 94% and the residual activity [12] was 100%. For the same molecule, the residual activity [13] was 96%, the residual activity [14] was 70% and the residual activity [15] was 87%. For the same molecule, the residual activity [16] was 100%, the residual activity [17] was 67% and the residual activity [18] was 100%. It also gave a residual activity [19] of 92%, a residual activity [20] of 100% and an inhibition [21] of 47.2%. For the same molecule, the residual activity [22] was 97%, the residual activity [23] was 100% and the residual activity [24] was 75%. It also gave a residual activity [25] of 80%, a residual activity [26] of 93% and a residual activity [27] of 96%. It also gave a residual activity [28] of 92%, a residual activity [29] of 92% and a residual activity [30] of 65%. For the same molecule, the residual activity [31] was 100%, the residual activity [32] was 100% and the residual activity [33] was 100%. It also gave a residual activity [34] of 73%, a residual activity [35] of 100% and an inhibition [36] of 78.8%. For the same molecule, the residual activity [37] was 100%, the residual activity [38] was 95% and the residual activity [39] was 100%. For the same molecule, the residual activity [40] was 97%, the residual activity [41] was 83% and the residual activity [42] was 89%. The residual activity [43] was 99%, the residual activity [44] was 100% and the residual activity [45] was 94%.
